Experimental data reported in patent US11339130B1 (Blade Therapeutics, Inc., priority 2016, dated 2022).
Like-named read-outs stand apart in the source and are kept apart here.

How the values were obtained:
Human Calpain 2/NS1 = biological target: T1, Human Calpain 2/NS1 (Homo sapiens, UniProt P17655); experiment: Calpain inhibition continuous fluorescence (FRET) assay, Human Calpain 2/NS1; type: biochemical
T1 sequence (P17655 1-700): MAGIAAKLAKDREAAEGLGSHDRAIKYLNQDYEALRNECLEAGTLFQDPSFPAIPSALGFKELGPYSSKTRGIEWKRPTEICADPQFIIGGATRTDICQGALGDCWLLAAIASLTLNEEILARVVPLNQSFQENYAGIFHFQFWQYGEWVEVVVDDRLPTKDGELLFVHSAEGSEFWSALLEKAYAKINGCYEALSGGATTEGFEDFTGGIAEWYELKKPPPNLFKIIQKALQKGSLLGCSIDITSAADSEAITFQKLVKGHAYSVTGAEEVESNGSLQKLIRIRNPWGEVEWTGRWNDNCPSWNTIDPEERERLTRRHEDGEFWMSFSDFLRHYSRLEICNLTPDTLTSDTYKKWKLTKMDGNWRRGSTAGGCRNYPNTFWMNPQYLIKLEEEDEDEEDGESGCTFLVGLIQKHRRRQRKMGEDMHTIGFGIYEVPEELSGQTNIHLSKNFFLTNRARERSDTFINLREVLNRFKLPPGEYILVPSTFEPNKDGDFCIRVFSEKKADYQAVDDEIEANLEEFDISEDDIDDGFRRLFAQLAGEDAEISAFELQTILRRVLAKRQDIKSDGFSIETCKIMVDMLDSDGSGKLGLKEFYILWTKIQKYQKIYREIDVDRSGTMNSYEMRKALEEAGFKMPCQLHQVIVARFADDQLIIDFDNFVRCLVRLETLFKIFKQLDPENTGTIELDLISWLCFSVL
T1 sequence (P04632 1-268 partner): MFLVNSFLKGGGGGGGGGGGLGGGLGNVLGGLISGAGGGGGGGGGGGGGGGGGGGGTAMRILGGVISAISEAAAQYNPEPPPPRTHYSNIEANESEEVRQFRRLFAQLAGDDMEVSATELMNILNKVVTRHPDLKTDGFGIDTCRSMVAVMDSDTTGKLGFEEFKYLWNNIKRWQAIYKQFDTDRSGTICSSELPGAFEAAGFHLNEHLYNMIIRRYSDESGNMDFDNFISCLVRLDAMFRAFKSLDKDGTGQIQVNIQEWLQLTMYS
Method in brief: (§1)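 Inhibitors were preincubated with calpain in 50 mM Tris pH 7.5, 100 mM NaCl, 1 mM DTT at 25C. Reactions were started with 5-FAM/QXL 520 FRET peptide substrate plus CaCl2 and read at 490/520 nm for 10 min. IC50s came from 4-parameter fits of slope rates (1-5 min).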

Human Calpain 9/NS1 = biological target: T2, Human Calpain 9/NS1 (Homo sapiens, UniProt O14815); experiment: Calpain inhibition continuous fluorescence (FRET) assay, Human Calpain 9/NS1; type: biochemical
T2 sequence (O14815 1-690): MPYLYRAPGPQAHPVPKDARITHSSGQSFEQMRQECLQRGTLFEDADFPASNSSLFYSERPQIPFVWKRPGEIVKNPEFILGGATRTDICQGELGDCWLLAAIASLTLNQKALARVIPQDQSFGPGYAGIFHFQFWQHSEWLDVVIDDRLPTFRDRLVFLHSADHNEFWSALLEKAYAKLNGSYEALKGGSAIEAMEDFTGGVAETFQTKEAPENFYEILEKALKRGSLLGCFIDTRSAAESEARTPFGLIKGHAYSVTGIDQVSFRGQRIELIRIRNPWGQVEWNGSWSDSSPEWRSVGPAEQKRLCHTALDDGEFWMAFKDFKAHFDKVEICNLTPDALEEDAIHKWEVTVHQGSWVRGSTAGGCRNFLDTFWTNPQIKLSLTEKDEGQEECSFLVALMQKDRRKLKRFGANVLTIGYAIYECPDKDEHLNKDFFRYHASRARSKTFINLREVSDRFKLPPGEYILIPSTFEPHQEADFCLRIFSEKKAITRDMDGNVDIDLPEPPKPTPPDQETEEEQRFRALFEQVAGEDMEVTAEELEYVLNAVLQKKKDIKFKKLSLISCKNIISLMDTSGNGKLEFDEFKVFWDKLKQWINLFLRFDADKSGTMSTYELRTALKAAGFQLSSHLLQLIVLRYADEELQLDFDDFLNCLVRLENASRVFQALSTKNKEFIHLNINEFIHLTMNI
T2 sequence (P04632 1-268 partner): T1 sequence (P04632 1-268 partner)
Method in brief: as §1

Human Calpain 1/NS1 = biological target: T3, Human Calpain 1/NS1 (Homo sapiens, UniProt P07384); experiment: Calpain inhibition continuous fluorescence (FRET) assay, Human Calpain 1/NS1; type: biochemical
T3 sequence (P07384 1-714): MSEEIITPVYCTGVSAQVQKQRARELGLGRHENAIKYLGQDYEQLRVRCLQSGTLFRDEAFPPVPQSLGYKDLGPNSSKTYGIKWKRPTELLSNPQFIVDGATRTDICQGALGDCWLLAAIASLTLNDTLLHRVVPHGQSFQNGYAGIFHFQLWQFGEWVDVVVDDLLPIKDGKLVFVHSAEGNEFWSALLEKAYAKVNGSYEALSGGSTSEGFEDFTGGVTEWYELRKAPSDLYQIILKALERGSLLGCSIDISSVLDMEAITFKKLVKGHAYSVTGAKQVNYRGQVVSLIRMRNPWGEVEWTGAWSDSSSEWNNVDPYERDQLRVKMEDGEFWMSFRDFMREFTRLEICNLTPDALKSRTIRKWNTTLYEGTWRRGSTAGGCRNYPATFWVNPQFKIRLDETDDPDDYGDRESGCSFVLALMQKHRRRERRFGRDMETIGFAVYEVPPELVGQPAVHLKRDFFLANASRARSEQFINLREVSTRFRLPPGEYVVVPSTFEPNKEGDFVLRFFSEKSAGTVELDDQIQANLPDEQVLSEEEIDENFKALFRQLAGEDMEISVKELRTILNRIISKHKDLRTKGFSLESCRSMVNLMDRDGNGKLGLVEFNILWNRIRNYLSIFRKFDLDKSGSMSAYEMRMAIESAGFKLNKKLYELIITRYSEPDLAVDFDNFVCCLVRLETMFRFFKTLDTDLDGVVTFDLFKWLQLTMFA
T3 sequence (P04632 1-268 partner): T1 sequence (P04632 1-268 partner)
Method in brief: as §1

[1] = test system: Calpain activity in SH-SY5Y cells (SBDP-150); experiment: SH-SY5Y Spectrin western blot assay (SBDP-150 breakdown product, A23187-induced); type: cell-based; settings: Homo sapiens, read-out: SH-SY5Y Spectrin IC50
[2] = test system: Calpain activity in SH-SY5Y cells; experiment: SH-SY5Y + AMC fluorescence assay (Suc-LLVY-AMC substrate); type: cell-based; settings: read-out: SH-SY5Y + AMC IC50
[3] = read-out: Human Calpain 2/NS1 IC50
[4] = read-out: Human Calpain 9/NS1 IC50
[5] = read-out: Human Calpain 1/NS1 IC50
[6] = SH-SY5Y cells, A23187-induced SBDP-150, western blot

IC50 (Human Calpain 2/NS1; [3]) [µM] | IC50 (Human Calpain 9/NS1; [4]) [µM] | IC50 (Human Calpain 1/NS1; [5]) [µM] | IC50 [1, 6] [µM] | IC50 [2] [µM] | SMILES | IC50 (Human Calpain 2/NS1) [µM] | IC50 (Human Calpain 9/NS1) [µM] | IC50 (Human Calpain 1/NS1) [µM] | IC50 ([1]; SH-SY5Y) [µM]
< 3 | < 3 | < 3 | 10 to 25 | 10 to 25 | NC(=O)C(=O)C(Cc1ccccc1)NC(=O)c1cc(C(F)(F)C(F)(F)F)nn1-c1ccccc1 (centres unmarked) [Compound 342, N-(4-amino-3,4-dioxo-1-phenylbutan-2-yl)-3-(perfluoroethyl)-1-phenyl-1H-pyrazole-5-carboxamide] | – | – | – | –
< 3 | < 3 | < 3 | 10 to 25 | > 25 | NC(=O)C(=O)C(Cc1ccccc1)NC(=O)c1c(Cl)cnn1-c1ncccn1 (centres unmarked) [Compound 347, N-(4-amino-3,4-dioxo-1-phenylbutan-2-yl)-4-chloro-1-(pyrimidin-2-yl)-1H-pyrazole-5-carb oxamide] | – | – | – | –
< 3 | < 3 | < 3 | > 25 | < 10 | Cc1cc(C(=O)NC(Cc2ccccc2)C(=O)C(N)=O)n(-c2ncccc2F)n1 (centres unmarked) [Compound 348, N-(4-amino-3,4-dioxo-1-phenylbutan-2-yl)-1-(3-fluoropyridin-2-yl)-3-methyl-1H-pyrazole-5-carboxamide] | – | – | – | –

Second part, the compound before the results:

SMILES | IC50 (Human Calpain 2/NS1; [3]) [µM] | IC50 (Human Calpain 9/NS1; [4]) [µM] | IC50 (Human Calpain 1/NS1; [5]) [µM] | IC50 [1, 6] [µM] | IC50 [2] [µM] | IC50 (Human Calpain 2/NS1) [µM] | IC50 (Human Calpain 9/NS1) [µM] | IC50 (Human Calpain 1/NS1) [µM] | IC50 ([1]; SH-SY5Y) [µM]
CC[C@@H](C)[C@H](NC(=O)c1cn(C)nc1-c1ccccc1)C(=O)C(N)=O [Compound 333, N-((3S,4R)-1-amino-4-methyl-1,2-dioxohexan-3-yl)-1-methyl-3-phenyl-1H-pyrazole-4-carboxamide] | < 3 | < 3 | < 3 | > 25 | > 25 | – | – | – | –
Cn1cc(C(=O)N[C@@H](Cc2ccccc2)C(=O)C(=O)NCc2ncco2)c(-c2ccccc2)n1 [Compound 334, (S)-1-methyl-N-(4-((oxazol-2-ylmethyl)amino)-3,4-dioxo-1-phenylbutan-2-yl)-3-phenyl-1H-pyrazole-4-carboxamide] | < 3 | < 3 | < 3 | > 25 | < 10 | – | – | – | –
CN(C)C(=O)CNC(=O)C(=O)[C@H](Cc1ccccc1)NC(=O)c1cn(C)nc1-c1ccccc1 [Compound 337, (S)—N-(4-((2-(dimethylamino)-2-oxoethyl)amino)-3,4-dioxo-1-phenylbutan-2-yl)-1-methyl-3-phenyl-1H-pyrazole-4-carboxamide] | < 3 | < 3 | < 3 | < 10 | < 10 | – | – | – | –
Cn1cc(C(=O)N[C@@H](Cc2ccccc2)C(=O)C(=O)NCCC(N)=O)c(-c2ccccc2)n1 [Compound 338, (S)—N-(4-((3-amino-3-oxopropyl)amino)-3,4-dioxo-1-phenylbutan-2-yl)-1-methyl-3-phenyl-1H-pyrazole-4-carboxamide] | < 3 | < 3 | < 3 | > 25 | < 10 | – | – | – | –
Cn1cc(C(=O)N[C@@H](Cc2ccccc2)C(=O)C(=O)NCC(N)=O)c(-c2ccccc2)n1 [Compound 339, (S)—N-(4-((2-amino-2-oxoethyl)amino)-3,4-dioxo-1-phenylbutan-2-yl)-1-methyl-3-phenyl-1H-pyrazole-4-carboxamide] | < 3 | < 3 | < 3 | > 25 | 10 to 25 | – | – | – | –
Cc1cc(C(=O)N[C@H](C=O)Cc2ccccc2)n(-c2ncccn2)n1 [Compound 341, (S)-3-methyl-N-(1-oxo-3-phenylpropan-2-yl)-1-(pyrimidin-2-yl)-1H-pyrazole-5-carboxamide] | < 3 | 3 to 10 | < 3 | > 25 | 10 to 25 | – | – | – | –
Cc1cc(C(=O)N[C@@H](Cc2ccccc2)C(=O)C(N)=O)n(-c2cccc(CNC(=O)Oc3ccccc3)c2)n1 [Compound 344, Phenyl (S)-(3-(5-((4-amino-3,4-dioxo-1-phenylbutan-2-yl)carbamoyl)-3-methyl-1H-pyrazol-1-yl)benzyl)carbamate] | – | – | – | – | 10 to 25 | < 3 | < 3 | < 3 | > 25
